Where two headings read alike, the source gives them in different places.
Key:
Per2-dLuc U2OS cells = assay: Circadian luminescence period assay, Per2-dLuc U2OS cells; type: cell-based, human; conditions: for Effect of kinase inhibitor on circadian period length: threefold serial dilution starting at 100 μM; for Circadian period length: 8 μM, mean ± SEM, control 24.2 ± […]
Description: Per2-dLuc U2OS osteosarcoma and Bmal1-dLuc U2OS osteosarcoma reporter cell lines were gifts from Dr Andrew Liu, University of Memphis, USA ([Liu et al, 2008]). […] The cells were cultured at 37°C, 5% CO2 in a standard humidified incubator.

U2OS cells = assay: TMT quantitative proteomics of compound-treated U2OS cells; type: cell-based, human; conditions: 10 μM, 48 h, vs DMSO
Synechococcus elongatus = assay: Luminescence rhythm period assay in cyanobacteria; conditions: 3, 8, 16 and 32 μM
Description: The D730nm was maintained between 0.27 and 0.45 by dilution with fresh medium.
Circadian period–altering compounds (dissolved in DMSO, final 0.5% DMSO) were then added in the air medium to reach the different desired concentrations. […] Images were generated from integrated photon counts over 25 min every 30 min using Metamorph software (Molecular Devices). […] Exported images were composed into image stacks and were quantified in a time series using a custom script in NIH ImageJ software, applying the “Multi Measure” plugin.

CAMK1d = biological target: T1, CAMK1d (Homo sapiens, UniProt Q8IU85); assay: Radiometric HotSpot kinase assay; type: biochemical; conditions: read-out: Enzyme activity (%) CAMK1d
T1 construct: purchased Reaction Biology
Description: (§1) In brief, specific kinase/substrate pairs were mixed in a buffer containing 20 mM Hepes (pH 7.5), 10 mM MgCl2, 1 mM EGTA, 0.02% Brij35, 0.02 mg/ml BSA, 0.1 mM Na3VO4, 2 mM DTT, and 1% DMSO. […] After a 20-min incubation, ATP (cat. no. A7699; Sigma-Aldrich) and [γ-^33P] ATP (cat. no. NEG602H001MC; PerkinElmer) were added at a final total concentration of […].

CAMK2d = biological target: T2, CAMK2d (Homo sapiens, UniProt Q13557); assay: Radiometric HotSpot kinase assay; type: biochemical; conditions: read-out: Enzyme activity (%) CAMK2d
T2 construct: purchased Reaction Biology
Description: as §1

CDK2 = biological target: T3, CDK2 (Homo sapiens, UniProt P24941); assay: Radiometric HotSpot kinase assay; type: biochemical; conditions: n = 3, remaining activity vs DMSO, read-out: Enzyme activity (%) CDK2
T3 construct: purchased Reaction Biology
Description: as §1

CDK7 = biological target: T4, CDK7 (Homo sapiens, UniProt P50613); assay: Radiometric HotSpot kinase assay; type: biochemical; conditions: read-out: Enzyme activity (%) CDK7
T4 construct: purchased Reaction Biology
Description: as §1

CK1d = biological target: T5, CK1d (Homo sapiens, UniProt P48730); assay: Radiometric HotSpot kinase assay; type: biochemical; conditions: n = 3, remaining activity vs DMSO, read-out: Enzyme activity (%) CK1d
T5 construct: purchased Reaction Biology
Description: as §1

CK2a = biological target: T6, CK2a (Homo sapiens, UniProt P68400); assay: Radiometric HotSpot kinase assay; type: biochemical; conditions: read-out: Enzyme activity (%) CK2a
T6 construct: purchased Reaction Biology
Description: as §1

ERK1/MAPK3 = biological target: T7, ERK1/MAPK3 (Homo sapiens, UniProt P27361); assay: Radiometric HotSpot kinase assay; type: biochemical; conditions: read-out: Enzyme activity (%) ERK1/MAPK3
T7 construct: purchased Reaction Biology
Description: as §1

ERK2/MAPK1 = biological target: T8, ERK2/MAPK1 (Homo sapiens, UniProt P28482); assay: Radiometric HotSpot kinase assay; type: biochemical; conditions: read-out: Enzyme activity (%) ERK2/MAPK1
T8 construct: purchased Reaction Biology
Description: as §1

MST4/STK26 = biological target: T9, MST4/STK26 (Homo sapiens, UniProt Q9P289); assay: Radiometric HotSpot kinase assay; type: biochemical; conditions: read-out: Enzyme activity (%) MST4/STK26
T9 construct: purchased Reaction Biology
Description: as §1

TNIK = biological target: T10, TNIK (Homo sapiens, UniProt Q9UKE5); assay: Radiometric HotSpot kinase assay; type: biochemical; conditions: for remaining activity at 100 µM: read-out: Enzyme activity (%) TNIK
T10 construct: purchased Reaction Biology
Description: as §1

[1] = 100 μM, n = 3, remaining activity vs DMSO

T10 sequence (Q9UKE5 whole entry): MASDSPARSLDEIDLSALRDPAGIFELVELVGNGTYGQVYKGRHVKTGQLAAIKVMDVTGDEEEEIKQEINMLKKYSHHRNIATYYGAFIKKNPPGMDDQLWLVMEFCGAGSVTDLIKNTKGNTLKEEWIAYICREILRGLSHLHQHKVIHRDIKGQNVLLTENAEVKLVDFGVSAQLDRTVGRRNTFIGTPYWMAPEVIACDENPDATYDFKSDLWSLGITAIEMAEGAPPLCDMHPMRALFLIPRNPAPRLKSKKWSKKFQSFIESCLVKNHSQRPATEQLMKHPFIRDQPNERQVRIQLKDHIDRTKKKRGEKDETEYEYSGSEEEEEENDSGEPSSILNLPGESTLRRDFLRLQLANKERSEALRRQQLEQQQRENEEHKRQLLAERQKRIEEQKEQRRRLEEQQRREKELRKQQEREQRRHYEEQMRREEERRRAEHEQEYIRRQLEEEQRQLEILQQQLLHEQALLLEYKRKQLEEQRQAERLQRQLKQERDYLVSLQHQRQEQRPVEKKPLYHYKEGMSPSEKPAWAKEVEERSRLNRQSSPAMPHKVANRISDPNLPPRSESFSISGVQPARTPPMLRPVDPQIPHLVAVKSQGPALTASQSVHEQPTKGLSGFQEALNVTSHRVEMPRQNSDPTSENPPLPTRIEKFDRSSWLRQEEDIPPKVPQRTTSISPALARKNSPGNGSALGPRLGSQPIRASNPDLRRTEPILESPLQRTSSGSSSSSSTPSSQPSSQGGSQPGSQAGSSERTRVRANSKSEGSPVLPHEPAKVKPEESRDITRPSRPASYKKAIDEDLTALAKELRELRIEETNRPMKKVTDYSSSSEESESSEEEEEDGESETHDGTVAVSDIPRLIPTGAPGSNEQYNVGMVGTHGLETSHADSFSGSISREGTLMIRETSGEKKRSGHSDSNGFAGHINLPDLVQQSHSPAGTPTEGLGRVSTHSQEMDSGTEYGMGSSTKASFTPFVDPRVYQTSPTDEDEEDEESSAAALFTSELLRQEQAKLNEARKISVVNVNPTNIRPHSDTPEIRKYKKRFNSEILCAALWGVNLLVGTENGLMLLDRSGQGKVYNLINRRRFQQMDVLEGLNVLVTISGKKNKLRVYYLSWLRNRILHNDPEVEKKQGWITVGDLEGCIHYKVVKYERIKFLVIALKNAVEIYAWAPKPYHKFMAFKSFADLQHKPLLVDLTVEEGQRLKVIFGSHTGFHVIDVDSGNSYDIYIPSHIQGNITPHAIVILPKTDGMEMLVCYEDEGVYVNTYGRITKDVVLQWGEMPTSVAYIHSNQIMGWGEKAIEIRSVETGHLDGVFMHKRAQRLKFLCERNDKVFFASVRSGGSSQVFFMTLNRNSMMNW
T8 sequence (P28482 whole entry): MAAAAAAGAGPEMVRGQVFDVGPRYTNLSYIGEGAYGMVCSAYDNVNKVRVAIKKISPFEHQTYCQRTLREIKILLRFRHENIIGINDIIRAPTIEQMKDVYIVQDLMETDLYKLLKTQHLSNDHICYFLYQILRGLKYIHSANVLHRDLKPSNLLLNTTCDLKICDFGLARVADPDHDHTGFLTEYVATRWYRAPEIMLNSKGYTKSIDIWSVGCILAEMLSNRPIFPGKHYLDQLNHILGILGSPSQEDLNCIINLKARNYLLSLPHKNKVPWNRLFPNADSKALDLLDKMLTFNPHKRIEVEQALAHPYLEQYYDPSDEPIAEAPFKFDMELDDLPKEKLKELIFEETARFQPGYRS
T4 sequence (P50613 whole entry): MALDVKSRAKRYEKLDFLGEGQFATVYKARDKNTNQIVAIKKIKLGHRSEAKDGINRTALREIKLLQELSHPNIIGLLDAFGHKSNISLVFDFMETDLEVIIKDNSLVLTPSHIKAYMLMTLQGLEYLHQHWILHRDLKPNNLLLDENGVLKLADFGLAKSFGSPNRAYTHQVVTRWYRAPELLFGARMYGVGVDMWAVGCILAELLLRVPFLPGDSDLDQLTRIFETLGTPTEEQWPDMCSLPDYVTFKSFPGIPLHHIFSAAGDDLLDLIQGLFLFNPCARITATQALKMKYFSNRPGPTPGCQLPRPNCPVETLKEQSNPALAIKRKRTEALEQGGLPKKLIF
T4 sequence (P51946 whole entry partner): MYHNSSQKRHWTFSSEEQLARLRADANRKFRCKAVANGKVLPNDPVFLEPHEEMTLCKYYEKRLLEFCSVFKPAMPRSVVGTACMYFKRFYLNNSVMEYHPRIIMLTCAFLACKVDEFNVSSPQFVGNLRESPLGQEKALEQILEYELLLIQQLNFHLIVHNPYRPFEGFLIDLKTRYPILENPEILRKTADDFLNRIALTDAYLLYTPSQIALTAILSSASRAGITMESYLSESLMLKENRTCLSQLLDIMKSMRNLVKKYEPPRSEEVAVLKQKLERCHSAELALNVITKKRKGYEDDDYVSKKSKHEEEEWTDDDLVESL
T4 sequence (P51948 whole entry partner): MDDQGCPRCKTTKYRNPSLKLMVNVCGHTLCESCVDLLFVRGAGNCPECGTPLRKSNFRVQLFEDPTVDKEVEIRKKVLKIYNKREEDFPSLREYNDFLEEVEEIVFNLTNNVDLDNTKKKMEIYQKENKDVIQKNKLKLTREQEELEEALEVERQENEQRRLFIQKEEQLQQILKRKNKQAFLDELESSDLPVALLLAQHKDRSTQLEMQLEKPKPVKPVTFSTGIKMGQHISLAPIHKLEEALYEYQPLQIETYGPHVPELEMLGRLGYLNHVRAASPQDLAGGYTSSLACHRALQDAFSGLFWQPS
T1 sequence (Q8IU85 whole entry): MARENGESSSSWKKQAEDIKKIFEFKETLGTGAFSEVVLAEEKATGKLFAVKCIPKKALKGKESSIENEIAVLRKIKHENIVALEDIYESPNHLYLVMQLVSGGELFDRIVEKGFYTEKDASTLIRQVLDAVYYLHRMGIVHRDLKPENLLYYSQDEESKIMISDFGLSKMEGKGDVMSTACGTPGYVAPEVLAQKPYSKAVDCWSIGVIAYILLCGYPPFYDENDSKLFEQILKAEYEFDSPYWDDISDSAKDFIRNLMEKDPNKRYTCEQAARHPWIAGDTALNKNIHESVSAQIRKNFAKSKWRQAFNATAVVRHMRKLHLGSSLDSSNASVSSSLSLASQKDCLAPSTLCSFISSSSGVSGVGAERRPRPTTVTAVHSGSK
T6 sequence (P68400 whole entry): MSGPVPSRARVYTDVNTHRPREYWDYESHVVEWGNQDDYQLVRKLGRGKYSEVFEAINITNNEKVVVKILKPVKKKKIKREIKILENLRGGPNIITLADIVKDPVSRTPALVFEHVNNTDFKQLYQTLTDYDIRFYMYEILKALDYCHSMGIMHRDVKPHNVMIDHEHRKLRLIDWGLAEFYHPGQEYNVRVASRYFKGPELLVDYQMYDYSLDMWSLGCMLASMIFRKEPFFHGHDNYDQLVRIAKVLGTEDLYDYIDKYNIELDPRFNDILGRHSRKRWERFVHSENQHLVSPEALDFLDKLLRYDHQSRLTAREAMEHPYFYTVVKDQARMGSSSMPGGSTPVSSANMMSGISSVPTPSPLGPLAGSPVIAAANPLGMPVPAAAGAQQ
T2 sequence (Q13557 whole entry): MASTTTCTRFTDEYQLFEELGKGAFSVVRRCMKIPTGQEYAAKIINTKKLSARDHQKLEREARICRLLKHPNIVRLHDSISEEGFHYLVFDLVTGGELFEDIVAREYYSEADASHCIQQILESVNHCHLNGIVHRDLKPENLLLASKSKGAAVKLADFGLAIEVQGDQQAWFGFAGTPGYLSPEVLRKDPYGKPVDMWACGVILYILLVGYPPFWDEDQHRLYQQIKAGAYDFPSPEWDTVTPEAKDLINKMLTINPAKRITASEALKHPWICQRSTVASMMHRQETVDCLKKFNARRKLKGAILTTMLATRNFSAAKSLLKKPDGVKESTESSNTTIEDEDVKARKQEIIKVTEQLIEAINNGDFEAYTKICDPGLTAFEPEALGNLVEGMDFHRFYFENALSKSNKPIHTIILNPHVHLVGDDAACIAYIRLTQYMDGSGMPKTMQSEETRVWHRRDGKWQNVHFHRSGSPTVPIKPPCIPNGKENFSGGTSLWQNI
T9 sequence (Q9P289 whole entry): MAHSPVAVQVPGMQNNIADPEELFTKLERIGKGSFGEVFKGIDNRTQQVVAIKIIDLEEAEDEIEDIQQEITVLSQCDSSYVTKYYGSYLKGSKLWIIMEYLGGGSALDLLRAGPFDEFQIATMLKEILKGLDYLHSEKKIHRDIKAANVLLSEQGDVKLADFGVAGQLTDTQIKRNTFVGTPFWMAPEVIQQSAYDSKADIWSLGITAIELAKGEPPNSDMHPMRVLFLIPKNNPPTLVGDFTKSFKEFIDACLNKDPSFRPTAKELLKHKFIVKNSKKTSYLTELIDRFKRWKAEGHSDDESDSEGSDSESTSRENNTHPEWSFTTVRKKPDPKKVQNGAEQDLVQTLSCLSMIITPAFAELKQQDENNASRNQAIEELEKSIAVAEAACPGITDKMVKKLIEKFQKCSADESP
T7 sequence (P27361 whole entry): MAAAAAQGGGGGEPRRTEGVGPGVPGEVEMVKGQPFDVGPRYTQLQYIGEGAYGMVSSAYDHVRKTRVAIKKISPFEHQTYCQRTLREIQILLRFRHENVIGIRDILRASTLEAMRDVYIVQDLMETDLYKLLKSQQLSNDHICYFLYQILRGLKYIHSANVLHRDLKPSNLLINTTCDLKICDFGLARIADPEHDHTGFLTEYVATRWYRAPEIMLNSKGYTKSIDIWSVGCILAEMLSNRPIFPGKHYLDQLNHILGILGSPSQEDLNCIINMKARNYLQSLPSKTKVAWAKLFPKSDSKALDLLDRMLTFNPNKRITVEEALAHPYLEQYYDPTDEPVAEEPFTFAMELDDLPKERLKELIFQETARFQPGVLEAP

NC(=O)c1ccc(-c2nc(-c3ccc4c(c3)OCCO4)c(-c3ccccn3)[nH]2)cc1 [D4476]
Effect of kinase inhibitor on circadian period length (Per2-dLuc U2OS cells): substantial dose-dependent increase in the period length

Cc1cc2sc(NC(=O)Cc3ccccc3)nc2cc1Cl [LH846]
Effect of kinase inhibitor on circadian period length (Per2-dLuc U2OS cells): substantial dose-dependent increase in the period length

CC(C)n1cnc2c(NCc3cccc(C(F)(F)F)c3)ncnc21 [Longdaysin, longdaysin]
Circadian period length (Per2-dLuc U2OS cells): 35.1 ± 1.29 h
Average Fold-change Acot9 Q9Y305 (U2OS cells): 0.86
Average Fold-change Atp5f1e P56381 (U2OS cells): 0.88
Average Fold-change Bak1 Q16611 (U2OS cells): 1.18
Average Fold-change Cdk7 P50613 (U2OS cells): 0.85
Average Fold-change Col1a1 P02452 (U2OS cells): 0.83
Average Fold-change Csnk2a2 P19784 (U2OS cells): 0.81
Average Fold-change Csnk1d P48730 (U2OS cells): 0.75
Average Fold-change Ctsb P07858 (U2OS cells): 1.19
Average Fold-change Cyb5b O43169 (U2OS cells): 1.15
Average Fold-change Emsy Q7Z589 (U2OS cells): 0.86
Average Fold-change Gusb P08236 (U2OS cells): 1.17
Average Fold-change H1f0 P07305 (U2OS cells): 1.31
Average Fold-change Hist1h4a P62805 (U2OS cells): 1.36
Average Fold-change Hist2h3a Q71DI3 (U2OS cells): 1.28
Average Fold-change Krt9 P35527 (U2OS cells): 0.78
Average Fold-change Mapk1 P28482 (U2OS cells): 0.75
Average Fold-change Mapk14 Q16539 (U2OS cells): 0.78
Average Fold-change Nemf O60524 (U2OS cells): 0.80
Average Fold-change Npc2 P61916 (U2OS cells): 1.20
Average Fold-change Nucks1 Q9H1E3 (U2OS cells): 1.22
Average Fold-change Ppig Q13427 (U2OS cells): 0.89
Average Fold-change Rpl7a P62424 (U2OS cells): 0.85
Average Fold-change Rpl14 P50914 (U2OS cells): 0.80
Average Fold-change Rpl18 Q07020 (U2OS cells): 0.85
Average Fold-change Rpl28 P46779 (U2OS cells): 0.86
Average Fold-change Rpl37 P61927 (U2OS cells): 0.87
Average Fold-change Rpl37a P61513 (U2OS cells): 0.88
Average Fold-change Smarcd2 Q92925 (U2OS cells): 0.88
Average Fold-change Spryd4 Q8WW59 (U2OS cells): 0.78
Average Fold-change Tecr Q9NZ01 (U2OS cells): 0.46
Average Fold-change Terf2 Q15554 (U2OS cells): 1.15
Effect on period length in cyanobacteria (Synechococcus elongatus): do not affect period length

CC(C)[C@H](CO)Nc1nc(Nc2cccc(Cl)c2)c2ncn(C(C)C)c2n1 [Purvalanol A, purvalanol A]
Circadian period length (Per2-dLuc U2OS cells): 25.2 ± 0.04 h
Average Fold-change Acsf2 Q96CM8 (U2OS cells): 1.16
Average Fold-change Alcam Q13740 (U2OS cells): 1.20
Average Fold-change Arhgap29 Q52LW3 (U2OS cells): 1.19
Average Fold-change Cav1 Q03135 (U2OS cells): 1.17
Average Fold-change Cavin1 Q6NZI2 (U2OS cells): 1.22
Average Fold-change Cavin2 O95810 (U2OS cells): 1.29
Average Fold-change Cd47 Q08722 (U2OS cells): 1.17
Average Fold-change Cdk6 Q00534 (U2OS cells): 0.86
Average Fold-change Cdk7 P50613 (U2OS cells): 0.74
Average Fold-change Cdkn1a P38936 (U2OS cells): 1.52
Average Fold-change Cdkn1b P46527 (U2OS cells): 1.37
Average Fold-change Cers5 Q8N5B7 (U2OS cells): 1.14
Average Fold-change Cks1b P61024 (U2OS cells): 0.85
Average Fold-change Cks2 P33552 (U2OS cells): 0.83
Average Fold-change Col1a1 P02452 (U2OS cells): 0.80
Average Fold-change Ctsb P07858 (U2OS cells): 1.29
Average Fold-change Dpysl4 O14531 (U2OS cells): 1.15
Average Fold-change Fas P25445 (U2OS cells): 1.18
Average Fold-change Gls O94925 (U2OS cells): 0.80
Average Fold-change Gys1 P13807 (U2OS cells): 1.22
Average Fold-change H1f0 P07305 (U2OS cells): 1.20
Average Fold-change Hist1h4a P62805 (U2OS cells): 1.50
Average Fold-change Hist2h3a Q71DI3 (U2OS cells): 1.29
Average Fold-change Hmga1 P17096 (U2OS cells): 1.16
Average Fold-change Hmgcs1 Q01581 (U2OS cells): 0.77
Average Fold-change Hmgn2 P05204 (U2OS cells): 1.15
Average Fold-change Irf2bpl Q9H1B7 (U2OS cells): 1.15
Average Fold-change Itga2 P17301 (U2OS cells): 1.20
Average Fold-change Itga3 P26006 (U2OS cells): 1.17
Average Fold-change Naga P17050 (U2OS cells): 1.19
Average Fold-change Nbn O60934 (U2OS cells): 0.83
Average Fold-change Npc2 P61916 (U2OS cells): 1.33
Average Fold-change Pak1 Q13153 (U2OS cells): 1.19
Average Fold-change Ppp1cc P36873 (U2OS cells): 0.85
Average Fold-change Psap P07602 (U2OS cells): 1.20
Average Fold-change Rpl14 P50914 (U2OS cells): 0.75
Average Fold-change S100a2 P29034 (U2OS cells): 1.30
Average Fold-change Selenoh Q8IZQ5 (U2OS cells): 1.14
Average Fold-change Slc5a3 P53794 (U2OS cells): 1.16
Average Fold-change Slc20a1 Q8WUM9 (U2OS cells): 1.20
Average Fold-change Tada3 O75528 (U2OS cells): 1.28
Average Fold-change Uhrf1 Q96T88 (U2OS cells): 0.82
remaining activity at 100 µM (CAMK1d; [1]): 49.2%
remaining activity at 100 µM (CAMK2d; [1]): 53.2%
remaining activity at 100 µM (CDK2): 0.7%
remaining activity at 100 µM (CDK7): 3.8%
remaining activity at 100 µM (CK1d): 21.7%
remaining activity at 100 µM (CK2a; [1]): 76.9%
remaining activity at 100 µM (ERK1/MAPK3; [1]): 83.6%
remaining activity at 100 µM (ERK2/MAPK1; [1]): 66.5%
remaining activity at 100 µM (MST4/STK26; [1]): 32.7%
remaining activity at 100 µM (TNIK; [1]): 2.3%
IC50 (TNIK; 10-dose, threefold serial dilution starting at 100 μM): < 0.5 µM
Effect on period length in cyanobacteria (Synechococcus elongatus): do not affect period length

CC[C@H](CO)Nc1nc(NCc2ccccc2)c2ncn(C(C)C)c2n1 [Roscovitine, roscovitine]
Circadian period length (Per2-dLuc U2OS cells): 28.9 ± 0.08 h
remaining activity at 100 µM (CAMK1d): 56.7%
remaining activity at 100 µM (CAMK2d): 38.9%
remaining activity at 100 µM (CDK7): 4%
remaining activity at 100 µM (CK2a): 89.4%
remaining activity at 100 µM (ERK1/MAPK3): 59.1%
remaining activity at 100 µM (ERK2/MAPK1): 50.6%
remaining activity at 100 µM (MST4/STK26): 40.1%
remaining activity at 100 µM (TNIK): 7.8%
Effect on period length in cyanobacteria (Synechococcus elongatus): do not affect period length

COc1ccc2c(c1)/C(=C/c1cnc[nH]1)C(=O)N2 [SU9516]
Effect of kinase inhibitor on circadian period length (Per2-dLuc U2OS cells): substantial dose-dependent increase in the period length

From paper PMC6892409, “Phenotypic proteomic profiling identifies a landscape of targets for circadian clock–modulating compounds” (Life Science Alliance, 2019)
